What was measured:
CD209 tetramer = target: T1, CD209 tetramer (Homo sapiens, UniProt Q9NNX6); settings: concentration required to inhibit, by 50%, the binding of a fluorescently labeled mannosylated glycoconjugate to CD209 tetramer; cited from earlier work
T1 sequence (Q9NNX6 59-404 limits assumed): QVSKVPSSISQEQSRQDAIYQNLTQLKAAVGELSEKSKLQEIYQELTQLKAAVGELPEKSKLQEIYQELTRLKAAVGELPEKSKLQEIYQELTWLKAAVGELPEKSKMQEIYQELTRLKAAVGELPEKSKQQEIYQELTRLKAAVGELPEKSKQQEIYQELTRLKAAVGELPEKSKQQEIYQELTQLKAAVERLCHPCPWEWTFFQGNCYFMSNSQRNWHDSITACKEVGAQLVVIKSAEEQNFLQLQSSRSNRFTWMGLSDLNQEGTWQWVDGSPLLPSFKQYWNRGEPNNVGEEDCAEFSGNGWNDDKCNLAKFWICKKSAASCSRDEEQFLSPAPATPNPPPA

CD209 = target: T2, CD209 (Homo sapiens, UniProt Q9NNX6); settings: read-out: affinity for CD209, Kd; cited from earlier work
T2 sequence (Q9NNX6 1-404): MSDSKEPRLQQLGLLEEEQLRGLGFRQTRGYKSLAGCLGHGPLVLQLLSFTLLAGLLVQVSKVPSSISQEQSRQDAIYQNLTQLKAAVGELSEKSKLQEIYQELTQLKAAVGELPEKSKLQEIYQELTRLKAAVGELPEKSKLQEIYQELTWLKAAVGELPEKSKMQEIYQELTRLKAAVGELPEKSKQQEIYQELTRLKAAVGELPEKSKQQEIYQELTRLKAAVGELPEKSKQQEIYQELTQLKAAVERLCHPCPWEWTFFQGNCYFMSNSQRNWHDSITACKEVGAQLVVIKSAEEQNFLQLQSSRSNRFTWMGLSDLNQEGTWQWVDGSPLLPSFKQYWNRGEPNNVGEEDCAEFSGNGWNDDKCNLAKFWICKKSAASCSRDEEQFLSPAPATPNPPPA

[1] = tested on: C57/BL6 mice treated with bleomycin; assay: bleomycin-treated mice, cells in lung sections after BAL; type: in vivo; settings: 0.1 mg/kg intraperitoneal daily, day 3 after bleomycin, FIG. 5B
Experimental: The successful aspiration of bleomycin into the lungs was confirmed by listening for the crackling noise heard after the aspiration. 24 hours following bleomycin aspiration (day 1), mice were treated daily with intraperitoneal injections of 50 microliters of PBS containing 2 microliters of 1 mg/ml of compound 1 (ChemBridge Corporation, San Diego, Calif.) (0.1 mg/kg) dissolved in DMSO (SigmaAldrich, St. Louis, Mo.) or an equal volume of PBS containing 2 microliters of DMSO. All animals were used in accordance with rules published by the National Institutes of Health and with a protocol approved by the Texas A&M University Institutional Animal Care and Use Committee. Mice were weighed daily, and euthanized using CO2 following NIH guidelines at day 3 after bleomycin aspiration. There were no injections on day 3. […] The cells from the first BAL collection were collected by centrifugation at 500×g for 10 minutes. The BAL pellets were resuspended in the secondary and tertiary BAL fluid and the combined cells were collected by centrifugation at 500×g for 5 minutes. The cells were resuspended in 500 microliters of 4% (w/v) BSA-PBS and counted with a hemacytometer. 100 microliters of diluted cells were then aliquoted into cytospin funnels and were then spun onto glass slides (Superfrost plus white slides, VWR) at 400×g for 5 minutes using a cytospin centrifuge (Shandon, Cheshire, England). These cells were then air dried, and stained with anti-mouse Ly6G (Biolegend) to detect neutrophils, anti-mouse CD11b (Biolegend) to detect granulocytes, monocytes, and macrophages, anti-mouse CD11c (MBL International) to detect alveolar macrophages and dendritic cells, or anti-mouse CD45 (Biolegend) to detect leukocytes. For all slides, non-specific; binding was blocked by incubation in PBS containing 4% BSA for 60 minutes. Slides were then incubated with 5 microgram/ml primary antibodies in 4% BSA-PBS for 60 minutes. Primary antibodies were detected with biotinylated mouse anti-rat antibody (Jackson ImmunoResearch, West Grove, Pa.). All secondary antibodies were used at 2.5 microgram/ml in 4% BSA-PBS for 30 minutes. Biotinylated antibodies were detected by a 1/500 dilution of ExtrAvidin alkaline phosphatase (Vector Laboratories, Burlingame, Calif.) in 4% BSA-PBS for 30 minutes. Staining was developed with the Vector Red Alkaline Phosphatase Kit (Vector Laboratories) for 4 minutes following the manufacturer's protocol. […] After washing, the biotinylated antibodies were detected by streptavidin-alkaline phosphatase kit (Vector Laboratories) following the manufacturer's protocol.

[2] = tested on: C57/BL6 mice treated with bleomycin; assay: bleomycin-treated mice, cells in bronchoalveolar lavage (BAL); type: in vivo; settings: 0.1 mg/kg intraperitoneal daily from day 1, day 3 after bleomycin, versus drug vehicle; FIG. 5A
Experimental: The successful aspiration of bleomycin into the lungs was confirmed by listening for the crackling noise heard after the aspiration. 24 hours following bleomycin aspiration (day 1), mice were treated daily with intraperitoneal injections of 50 microliters of PBS containing 2 microliters of 1 mg/ml of compound 1 (ChemBridge Corporation, San Diego, Calif.) (0.1 mg/kg) dissolved in DMSO (SigmaAldrich, St. Louis, Mo.) or an equal volume of PBS containing 2 microliters of DMSO. All animals were used in accordance with rules published by the National Institutes of Health and with a protocol approved by the Texas A&M University Institutional Animal Care and Use Committee. Mice were weighed daily, and euthanized using CO2 following NIH guidelines at day 3 after bleomycin aspiration. There were no injections on day 3. […] The cells were resuspended in 500 microliters of 4% (w/v) BSA-PBS and counted with a hemacytometer. […] Primary antibodies were detected with biotinylated mouse anti-rat antibody (Jackson ImmunoResearch, West Grove, Pa.). […] Biotinylated antibodies were detected by a 1/500 dilution of ExtrAvidin alkaline phosphatase (Vector Laboratories, Burlingame, Calif.) in 4% BSA-PBS for 30 minutes. […] After washing, the biotinylated antibodies were detected by streptavidin-alkaline phosphatase kit (Vector Laboratories) following the manufacturer's protocol.

human neutrophils [3] = assay: human neutrophil spreading on fibronectin-coated plates after TNF-α; type: cell-based; settings: 3 microgram/ml compound, FIG. 3
human neutrophils [4] = assay: human neutrophil adhesion to human fibronectin after TNF-α; type: cell-based; settings: fibronectin-coated plate, FIG. 2
Source text: Human blood was collected into EDTA tubes (BD Bioscience, San Jose, Calif.) from adult volunteers who gave written consent and with specific approval from the Texas A&M University human subjects Institutional Review Board. Neutrophils were then isolated from the blood using Lympholyte-poly (Cedarlane Laboratories, Hornby, BC, Canada) following the manufacturer's protocol and resuspended in 2% bovine serum albumen (BSA) (fraction V, A3059; Sigma-Aldrich) in RPMI 1640 medium (Lonza, Allendale, N.J.). 96-well tissue culture plates (flat-bottom polystyrene, BD Bioscience) were pre-coated with 20 μg/ml of human plasma fibronectin (Trevigen, Gaithersburg, Md.) in phosphate buffered saline (PBS) for 30 minutes at 37° C. and then blocked with 2% BSA in RPMI for 1 hour at 37° C. 50 microliters of 5×10^5 cells/ml neutrophils were incubated with 3 microgram/ml (0.5 microliters of the stock solution) of compound 1 or 3 for 30 minutes at 37° C. in a 1.5 ml Eppendorf tube (Eppendorf, Hauppauge, N.Y.). When testing the effect of CD209 antibodies on neutrophil adhesion to human fibronectin, anti-human CD209 antibodies clone DCN46 (BD Biosciences, San Jose, Calif.), eB-h209 (eBioscience, San Jose, Calif.), H-200 (Santa Cruz Biotechnology, Dallas, Tex.), ab89186 (Abcam, Cambridge, Mass.), or 9E9A8 (Biolegend Inc, San Diego, Calif.) were incubated with neutrophils at a concentration of 1 microgram/ml (0.2 microliters of the stock solution) or the concentration indicated on the figure. Rat IgG2a was used as an isotype control for the anti-human CD209 antibody clone eB-h209. Mouse IgG2b was used as an isotype control for the anti-human CD209 antibody clone DCN46. Mouse IgG1 was used as an isotype control for the anti-human CD209 antibody clone 9E9A8. Rabbit IgG was used as an isotype control for the two rabbit anti-human CD209 antibodies clone H-200 and ab89186. […] After removing the media and washing the plates 3 times with PBS, the plates were air-dried, fixed, stained, and the number of neutrophils that remained in the wells was counted. […]

[5] = 3 microgram/ml compound, 30 minutes

Molecule	IC50 (CD209 tetramer) [µM]	Kd (CD209) [µM]	further results
CCC(=O)CCCC1C(=O)Nc2cc(C(=O)N3CCN(c4ccccc4)CC3)ccc2N1Cc1ccccc1 (stereo not shown) [Compound 14]	170	–	–
O=C1Nc2cc(C(=O)N3CCN(c4ccccc4)CC3)ccc2NC1CSCc1c(F)cccc1Cl (stereo not shown) [Compound 4]	–	7.3	–
CCCOC(=O)c1ccc(-c2ccc(C=C3C(=O)N(c4ccc(S(N)(=O)=O)cc4)N=C3C(F)(F)F)o2)cc1 [Compound 2]	–	6.2	–
CC(=O)Nc1cccc(CCCC2Nc3ccc(C(=O)N4CCN(c5cccc(C(F)(F)F)c5)CC4)cc3NC2=O)c1 (stereo not shown) [Compound 19]	23	–	–
CN1CCN(c2ccc(/C=C3\Sc4ccccc4C3=O)cc2[N+](=O)[O-])CC1 [Compound 7]	–	10	–
COc1ccccc1N1CCN(C(=O)c2ccc3c(c2)NC(=O)C(CCCc2ccccc2C)N3)CC1 (stereo not shown) [Compound 21]	4.4	–	–
CCCCCC1C(=O)Nc2cc(C(=O)N3CCN(CC)CC3)ccc2N1C (stereo not shown) [Compound 10]	360	–	–
CCC(=O)Nc1nc(C)c(-c2csc(Nc3ccc(N(C)C)cc3)n2)s1 [Compound 1]	–	1.6	CD11c-positive macrophages in lung sections ([1]; versus drug vehicle): significant increase; CD206-positive cells in lung sections ([1]; versus drug vehicle): significant increase; number of Ly6G-positive neutrophils in lung sections ([1]; versus drug vehicle): significant decrease; CD11b-positive inflammatory macrophages in lung sections [1]: no effect; number of CD11b-positive inflammatory macrophages in the BAL [2]: decrease; number of Ly6G-positive neutrophils in the BAL [2]: decrease; neutrophil spreading compared to the TNF-α control (human neutrophils [3]): reduced neutrophil spreading; neutrophil adhesion compared to the TNF-α control (human neutrophils [4]; [5]): significantly reduced neutrophil adhesion
O=C(O)c1ccc(CCCC2Nc3ccc(C(=O)N4CCN(c5ccco5)CC4)cc3NC2=O)cc1 (stereo not shown) [Compound 20]	10	–	–
CCCCC1Nc2ccc(C(=O)N3CCN(C)CC3)cc2NC1=O (stereo not shown) [Compound 12]	313	–	–
O=C1Nc2cc(C(=O)N3CCN(c4ccccc4)CC3)ccc2NC1CCCc1ccccc1C(F)(F)F (stereo not shown) [Compound 16]	71	–	–
CCCCCC1C(=O)Nc2cc(C(=O)N3CCN(CCC)CC3)ccc2N1CC (stereo not shown) [Compound 9]	370	–	–
CCCCC1C(=O)Nc2cc(C(=O)N3CCN(C)CC3)ccc2N1C (stereo not shown) [Compound 11]	329	–	–
SAP: Serum Amyloid P from EMD Millipore, known to inhibit neutrophil migration and adhesion [reference compound]	–	–	neutrophil adhesion compared to the TNF-α control (human neutrophils [4]; 10 microgram/ml SAP): significantly reduced neutrophil adhesion
CCN1c2ccc(C(=O)N3CCN(c4ncccn4)CC3)cc2NC(=O)C1CCCc1ccc(C(N)=O)cc1 (stereo not shown) [Compound 17]	68	–	–
COC(=O)c1ccc(-c2ccc(C=C3C(=O)N(c4ccc(S(N)(=O)=O)cc4)N=C3C(F)(F)F)o2)cc1 [Compound 3]	–	32	neutrophil adhesion compared to the TNF-α control (human neutrophils [4]; [5]): significantly reduced neutrophil adhesion
O=C1Nc2cc(C(=O)N3CCN(c4ccccc4O)CC3)ccc2NC1CCCc1ccccc1 (stereo not shown) [Compound 15]	113	–	–
NC(=O)c1ccc(CCCC2Nc3ccc(C(=O)N4CCN(c5ncccn5)CC4)cc3NC2=O)cc1 (stereo not shown) [Compound 22]	2.6	–	–
Cc1ccc(N(C)S(=O)(=O)c2ccc3[nH]cc(C(=O)N4CCN(c5ccccc5)CC4)c(=O)c3c2)cc1C [Compound 6]	–	6.1	–
